{"source": "paper PMC7316778", "about": "(Nature Communications, 2020)", "key": {"[1]": {"biological_target": "T1, DCAMKL1 (DCLK1) (Homo sapiens, UniProt O15075)", "T1 sequence (O15075 1-740)": "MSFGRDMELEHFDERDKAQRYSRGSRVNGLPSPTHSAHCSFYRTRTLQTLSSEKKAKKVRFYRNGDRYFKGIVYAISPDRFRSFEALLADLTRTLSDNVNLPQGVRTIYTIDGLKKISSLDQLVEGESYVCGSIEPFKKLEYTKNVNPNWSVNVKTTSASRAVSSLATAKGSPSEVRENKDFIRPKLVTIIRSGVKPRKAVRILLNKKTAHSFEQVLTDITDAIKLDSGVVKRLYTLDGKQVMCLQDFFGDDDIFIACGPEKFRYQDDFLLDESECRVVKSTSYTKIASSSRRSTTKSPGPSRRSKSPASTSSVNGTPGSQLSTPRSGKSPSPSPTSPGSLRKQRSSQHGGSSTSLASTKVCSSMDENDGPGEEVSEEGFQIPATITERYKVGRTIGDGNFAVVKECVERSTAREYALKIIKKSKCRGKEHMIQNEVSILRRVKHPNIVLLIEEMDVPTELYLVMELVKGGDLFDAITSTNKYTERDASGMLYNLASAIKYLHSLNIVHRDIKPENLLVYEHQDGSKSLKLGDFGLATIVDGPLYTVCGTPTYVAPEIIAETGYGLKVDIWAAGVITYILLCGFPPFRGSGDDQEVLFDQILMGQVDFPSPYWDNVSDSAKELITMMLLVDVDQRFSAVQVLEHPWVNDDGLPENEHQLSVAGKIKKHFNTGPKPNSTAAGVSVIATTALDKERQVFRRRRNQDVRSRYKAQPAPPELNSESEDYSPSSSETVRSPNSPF", "experiment": "SelectScreen kinase assay"}, "[2]": {"biological_target": "GRK6 (Homo sapiens, UniProt P43250)", "sequence (P43250 whole entry)": "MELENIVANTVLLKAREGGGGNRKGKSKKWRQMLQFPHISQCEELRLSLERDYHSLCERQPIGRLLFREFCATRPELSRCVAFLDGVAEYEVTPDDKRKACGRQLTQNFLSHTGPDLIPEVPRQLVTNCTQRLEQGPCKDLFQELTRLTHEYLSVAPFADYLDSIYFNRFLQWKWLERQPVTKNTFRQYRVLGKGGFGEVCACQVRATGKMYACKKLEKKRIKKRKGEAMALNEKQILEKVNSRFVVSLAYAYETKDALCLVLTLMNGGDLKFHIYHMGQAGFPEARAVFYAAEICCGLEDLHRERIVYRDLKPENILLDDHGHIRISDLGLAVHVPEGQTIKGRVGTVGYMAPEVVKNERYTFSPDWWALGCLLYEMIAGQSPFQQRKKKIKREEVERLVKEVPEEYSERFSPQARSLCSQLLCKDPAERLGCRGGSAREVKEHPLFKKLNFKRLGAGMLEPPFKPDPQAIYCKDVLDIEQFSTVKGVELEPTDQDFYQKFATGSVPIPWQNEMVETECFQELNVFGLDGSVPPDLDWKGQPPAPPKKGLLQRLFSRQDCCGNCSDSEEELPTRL", "experiment": "SelectScreen kinase assay"}, "[3]": {"biological_target": "GRK7 (Homo sapiens, UniProt Q8WTQ7)", "sequence (Q8WTQ7 whole entry)": "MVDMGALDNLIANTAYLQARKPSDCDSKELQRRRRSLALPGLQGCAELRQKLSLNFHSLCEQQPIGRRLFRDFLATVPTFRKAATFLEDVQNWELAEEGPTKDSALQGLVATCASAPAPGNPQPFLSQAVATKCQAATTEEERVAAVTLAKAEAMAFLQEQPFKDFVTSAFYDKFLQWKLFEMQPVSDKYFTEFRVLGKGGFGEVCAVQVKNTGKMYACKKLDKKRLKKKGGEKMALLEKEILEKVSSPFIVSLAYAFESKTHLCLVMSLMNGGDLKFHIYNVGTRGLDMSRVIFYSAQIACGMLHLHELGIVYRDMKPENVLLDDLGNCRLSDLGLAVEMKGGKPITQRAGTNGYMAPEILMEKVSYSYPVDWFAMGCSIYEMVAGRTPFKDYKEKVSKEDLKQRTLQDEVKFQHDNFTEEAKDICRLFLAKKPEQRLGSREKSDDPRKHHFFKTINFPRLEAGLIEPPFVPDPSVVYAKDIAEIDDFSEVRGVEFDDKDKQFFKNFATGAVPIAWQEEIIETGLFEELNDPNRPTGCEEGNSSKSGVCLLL", "experiment": "SelectScreen kinase assay", "conditions": "1 h, 1 μM WEL028, 1 h preincubation"}, "[4]": {"biological_target": "TLK2 (Homo sapiens, UniProt Q86UE8)", "sequence (Q86UE8 whole entry)": "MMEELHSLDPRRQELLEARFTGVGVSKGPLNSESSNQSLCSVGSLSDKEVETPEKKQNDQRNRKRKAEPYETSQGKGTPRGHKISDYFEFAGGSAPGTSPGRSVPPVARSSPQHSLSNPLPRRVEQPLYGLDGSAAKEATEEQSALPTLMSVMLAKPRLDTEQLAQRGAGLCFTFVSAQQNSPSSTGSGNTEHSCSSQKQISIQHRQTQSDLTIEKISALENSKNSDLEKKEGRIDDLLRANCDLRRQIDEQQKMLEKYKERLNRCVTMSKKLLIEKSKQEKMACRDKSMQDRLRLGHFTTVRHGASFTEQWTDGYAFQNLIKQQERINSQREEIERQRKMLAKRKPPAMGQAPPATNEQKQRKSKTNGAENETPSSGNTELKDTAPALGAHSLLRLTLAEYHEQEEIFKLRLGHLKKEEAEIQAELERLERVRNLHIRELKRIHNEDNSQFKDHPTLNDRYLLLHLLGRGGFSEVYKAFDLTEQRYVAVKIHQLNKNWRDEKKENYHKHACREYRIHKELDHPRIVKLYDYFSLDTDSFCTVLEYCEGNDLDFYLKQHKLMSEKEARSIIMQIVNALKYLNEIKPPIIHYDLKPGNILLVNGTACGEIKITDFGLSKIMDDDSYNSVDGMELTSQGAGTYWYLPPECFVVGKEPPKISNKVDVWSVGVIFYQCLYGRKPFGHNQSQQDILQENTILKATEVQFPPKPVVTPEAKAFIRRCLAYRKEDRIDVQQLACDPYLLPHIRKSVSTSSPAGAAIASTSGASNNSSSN", "experiment": "SelectScreen kinase assay"}, "[5]": {"biological_target": "FES^S700C (Homo sapiens, UniProt P07332, S700C)", "sequence (P07332 whole entry S700C)": "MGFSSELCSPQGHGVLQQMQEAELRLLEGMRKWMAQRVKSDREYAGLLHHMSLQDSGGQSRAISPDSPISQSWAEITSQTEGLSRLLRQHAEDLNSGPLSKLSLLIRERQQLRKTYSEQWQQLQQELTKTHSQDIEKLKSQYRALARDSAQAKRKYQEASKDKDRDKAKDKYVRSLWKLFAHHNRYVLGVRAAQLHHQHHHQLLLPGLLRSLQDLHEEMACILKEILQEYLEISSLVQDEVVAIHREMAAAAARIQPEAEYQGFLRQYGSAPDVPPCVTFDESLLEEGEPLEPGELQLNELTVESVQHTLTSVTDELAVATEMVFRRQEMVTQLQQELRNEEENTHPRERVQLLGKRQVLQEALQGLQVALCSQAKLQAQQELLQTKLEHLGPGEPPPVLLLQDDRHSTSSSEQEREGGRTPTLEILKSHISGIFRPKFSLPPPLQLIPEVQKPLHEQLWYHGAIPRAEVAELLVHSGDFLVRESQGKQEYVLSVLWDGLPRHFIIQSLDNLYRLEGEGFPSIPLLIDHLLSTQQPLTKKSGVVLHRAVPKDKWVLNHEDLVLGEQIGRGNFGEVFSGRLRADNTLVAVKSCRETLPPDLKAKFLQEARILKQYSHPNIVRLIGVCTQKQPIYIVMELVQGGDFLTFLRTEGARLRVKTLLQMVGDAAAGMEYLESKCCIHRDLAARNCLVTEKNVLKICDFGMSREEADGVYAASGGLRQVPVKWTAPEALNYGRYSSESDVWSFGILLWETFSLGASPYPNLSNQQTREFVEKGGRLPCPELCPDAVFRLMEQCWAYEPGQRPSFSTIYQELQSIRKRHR", "experiment": "FES Y713 autophosphorylation immunoblot, transfected HEK293T cells", "format": "cell-based", "parameters": "expressed in transfected cells; host or cells: HEK293T (transient, PEI)", "conditions": "WEL028 100 nM", "experimental": "Samples were resolved by SDS-PAGE as described above, but transferred to 0.2 μm polyvinylidene difluoride membranes by Trans-Blot Turbo™ Transfer system (Bio-Rad) directly after fluorescence scanning. Membranes were washed with TBS (50 mM Tris pH 7.5, 150 mM NaCl) and blocked with 5% milk in TBS-T (50 mM Tris pH 7.5, 150 mM NaCl, 0.05% Tween-20) for 1 h at rt.\nMembranes were then incubated with primary antibody in 5% milk in TBS-T (FLAG, V5, β-actin; o/n at 4 °C) or washed three times with TBS-T, followed by incubation with primary antibody in 5% BSA in TBS-T (other antibodies, o/n at 4 °C). Membranes were washed three times with TBS-T, incubated with matching secondary antibody in 5% milk in TBS-T (1:5000, 1 h at rt) and then washed three times with TBS-T and once with TBS. Luminol development solution (10 mL of 1.4 mM luminol in 100 mM Tris pH 8.8 + 100 µL of 6.7 mM p-coumaric acid in DMSO + 3 µL of 30% (v/v) H2O2) or Clarity Max™ ECL Substrate (Bio-Rad) was added and chemiluminescence was detected on ChemiDoc™ MP System."}, "[6]": {"biological_target": "endogenous FES^S700C (Homo sapiens, UniProt P07332, S700C)", "sequence (P07332 whole entry S700C)": "as above", "experiment": "In situ target engagement in live HL-60 macrophages (WEL033 post-labeling)", "format": "cell-based", "parameters": "endogenous in cells; host or cells: HL-60 FES^S700C clone, differentiated to macrophages or neutrophils", "conditions": "for Relative FES labeling (%) Mean: Supplementary Figure 13b", "description": "and harvested. […] Band intensities were\nValues represent means of fold enrichment (n"}}, "note": "Values joined by “and” are separate entries in the source; they are usually repeats but may differ in a detail not shown here. Equal values may be shown once. Read-outs that look alike come from different tables or passages of the source."}
{"compound": "C#CCOc1ccc(Nc2ncc(Cl)c(Nc3ccccc3NC(=O)C=C)n2)c(OC)c1", "note": "[Compound 6]", "values": [{"measurement": "Inhibition (%)", "setting": "[1]; 1 μM WEL028, 1 h preincubation", "value": 4, "unit": "%"}, {"measurement": "Inhibition at 1 µM (%)", "setting": "[1]; DCAMKL1 (DCLK1), 1 µM, ZLYTE, ATP Km app, listed as WEL028, 1 µM", "value": 5, "unit": "%"}, {"measurement": "inhibition at 1 µM", "setting": "[1]; read-out: Inhibition at 1 µM (%), DCAMKL1 (DCLK1), 1 µM, ZLYTE, ATP Km app", "value": 3, "unit": "%"}, {"measurement": "inhibition at 1 µM", "setting": "[2]; 1 h", "value": 0, "unit": "%"}, {"measurement": "inhibition at 1 µM", "setting": "[2]; read-out: Inhibition at 1 µM (%)", "value": 0, "unit": "%"}, {"measurement": "inhibition at 1 µM", "setting": "[3]", "value": 11, "unit": "%"}, {"measurement": "Inhibition at 1 µM (%)", "setting": "[4]; 1 µM, LanthaScreen Binding, listed as WEL028, 1 µM", "value": 1, "unit": "%"}, {"measurement": "inhibition at 1 µM", "setting": "[4]; 1 h, 1 μM WEL028, 1 h preincubation", "value": 0, "unit": "%"}, {"measurement": "Relative FES labeling (%)", "setting": "[5]; Fig. 4i, anti-phospho-FES Y713 band intensity, replicates, normalized to vehicle", "value": "6.91% and 5.589% and 0.4481%"}, {"measurement": "Autophosphorylation of Tyr713", "setting": "[5]", "value": "fully abolished autophosphorylation"}, {"measurement": "IC50", "setting": "[6]; live FES^S700C HL-60 macrophages, 1 h, WEL033 1 µM post-labeling, n = 3, read-out: pIC50, relative FES labeling (converted)", "value": 3.98, "unit": "nM"}, {"measurement": "Relative FES labeling (%) Mean", "setting": "[6]; log[WEL028] (M) -6", "value": 6.696, "unit": "%"}, {"measurement": "Relative FES labeling (%) Mean", "setting": "[6]; log[WEL028] (M) -7", "value": 2.482, "unit": "%"}, {"measurement": "Relative FES labeling (%) Mean", "setting": "[6]; log[WEL028] (M) -7.52288", "value": 5.093, "unit": "%"}, {"measurement": "Relative FES labeling (%) Mean", "setting": "[6]; log[WEL028] (M) -8", "value": 18.898, "unit": "%"}, {"measurement": "Relative FES labeling (%) Mean", "setting": "[6]; log[WEL028] (M) -8.52288", "value": 58.4122, "unit": "%"}, {"measurement": "Relative FES labeling (%) Mean", "setting": "[6]; log[WEL028] (M) -9", "value": 92.5647, "unit": "%"}]}
